Reference: patent US20150133512A1, “N-ARYLTRIAZOLE COMPOUNDS AS LPAR ANTAGONISTS” (Hoffmann-La Roche Inc,, priority 2012, published 2015)

Legend:
[1] = biological target: human recombinant LPA1 Lysophospholipid receptor (Homo sapiens, UniProt Q92633); test: Calcium flux assay using FLIPR, LPA1 antagonist activity; assay type: cell-based; details: for IC50: ChemiScreen Calcium-optimized stable cell line, antagonist mode, inhibition of agonist-induced calcium flux
Procedure: (§1) Calcium Flux Assay Using Fluorometric Imaging Plate Reader (FLIPR)
Cell Culture Conditions: The ChemiScreen Calcium-optimized stable cell line containing the human recombinant LPA1 Lysophospholipid receptor was purchased from Chemicon International, Inc./Millipore. The cells were cultured in DMEM-high glucose supplemented with 10% fetal bovine serum, 2 mM glutamine, 100 U/mL penicillin/100 μg/mL streptomycin, 1× non-essential amino acids, 10 mM HEPES and 0.25 mg/mL Geneticin. Cells were harvested with trypsin-EDTA and counted using ViaCount reagent. The cell suspension volume was adjusted to 2.0×10^5 cells/mL with complete growth media. Aliquots of 50 μL were dispensed into 384 well black/clear tissue culture treated plates (BD) and the microplates were placed in a 37° C. incubator overnight. The following day plates were used in the assay.
(§2) Dye Loading and Assay: Loading Buffer (FLIPR Calcium-4, Molecular Devices) was prepared by dissolving the contents of one bottle into 100 mL Hank's Balanced Salt Solution containing 20 mM HEPES and 2.5 mM probenecid. Plates were loaded onto Biotek plate washer and growth media was removed and replaced with 20 μL of Hank's Balanced Salt Solution containing 20 mM HEPES and 2.5 mM probenecid, followed by 25 μL of Loading Buffer. The plates were then incubated for 30 minutes at 37° C.
During the incubation, test compounds were prepared by adding 90 μL of HBSS/20 mM HEPES/0.1% BSA buffer to 2 μL of serially diluted compounds. To prepare serial dilutions, 10 mM stocks of compounds were prepared in 100% DMSO.
After incubation, both the cell and “assay” plates were brought to the FLIPR and 20 μL of the diluted compounds were transferred to the cell plates by the FLIPR. Compound addition was monitored by FLIPR to detect any agonist activity of the compounds. Plates were then incubated for 30 minutes at room temperature protected from light. […] During the assay, fluorescence readings were taken simultaneously from all 384 wells of the cell plate every 1.5 seconds. Five readings were taken to establish a stable baseline, then 20 μL of sample was rapidly (30 μL/sec) and simultaneously added to each well of the cell plate. The fluorescence was continuously monitored before, during and after sample addition for a total elapsed time of 100 seconds. Responses (increase in peak fluorescence) in each well following agonist addition was determined. The initial fluorescence reading from each well, prior to ligand stimulation, was used as zero baseline value for the data from that well. The responses were expressed as % inhibition of the buffer control.

[2] = biological target: T1, LPA3 (Homo sapiens, UniProt Q9UBY5); test: Calcium flux assay using FLIPR, LPA3 antagonist activity; assay type: cell-based; details: for IC50: antagonist activity
T1 sequence (Q9UBY5 1-353): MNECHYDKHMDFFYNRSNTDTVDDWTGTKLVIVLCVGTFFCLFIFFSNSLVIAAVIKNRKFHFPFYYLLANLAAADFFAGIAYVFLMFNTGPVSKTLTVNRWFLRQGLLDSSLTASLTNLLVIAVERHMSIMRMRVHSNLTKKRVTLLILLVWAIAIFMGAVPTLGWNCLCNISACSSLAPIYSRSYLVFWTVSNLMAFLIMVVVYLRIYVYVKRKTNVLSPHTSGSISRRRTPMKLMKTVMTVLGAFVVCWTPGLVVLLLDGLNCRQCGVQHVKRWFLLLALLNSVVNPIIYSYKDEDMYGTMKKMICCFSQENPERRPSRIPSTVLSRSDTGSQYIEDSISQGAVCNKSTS
Procedure: as §1, §2
During the incubation, test compounds were prepared by adding 90 μL of HBSS/20 mM HEPES/0.1% BSA buffer to 2 μL of serially diluted compounds. To prepare serial dilutions, 10 mM stocks of compounds were prepared in 100% DMSO. The compound dilution plate was set up as follows: well #1 received 29 μL of stock compound and 31 μL DMSO; wells 2-10 received 40 μL of DMSO; mixed and transferred 20 μL of solution from well #1 into well #2; continued with 1:3 serial dilutions out 10 steps; transferred 2 μL of diluted compound into duplicate wells of 384 well “assay plate” and then added the 90 μL of buffer.
After incubation, both the cell and “assay” plates were brought to the FLIPR and 20 μL of the diluted compounds were transferred to the cell plates by the FLIPR. Compound addition was monitored by FLIPR to detect any agonist activity of the compounds. Plates were then incubated for 30 minutes at room temperature protected from light. After the incubation, plates were returned to the FLIPR and 20 μL of 4.5× concentrated agonist was added to the cell plates. During the assay, fluorescence readings were taken simultaneously from all 384 wells of the cell plate every 1.5 seconds. Five readings were taken to establish a stable baseline, then 20 μL of sample was rapidly (30 μL/sec) and simultaneously added to each well of the cell plate. The fluorescence was continuously monitored before, during and after sample addition for a total elapsed time of 100 seconds. Responses (increase in peak fluorescence) in each well following agonist addition was determined. The initial fluorescence reading from each well, prior to ligand stimulation, was used as zero baseline value for the data from that well. The responses were expressed as % inhibition of the buffer control.

human recombinant LPA1 Lysophospholipid receptor, sequence (Q92633 whole entry): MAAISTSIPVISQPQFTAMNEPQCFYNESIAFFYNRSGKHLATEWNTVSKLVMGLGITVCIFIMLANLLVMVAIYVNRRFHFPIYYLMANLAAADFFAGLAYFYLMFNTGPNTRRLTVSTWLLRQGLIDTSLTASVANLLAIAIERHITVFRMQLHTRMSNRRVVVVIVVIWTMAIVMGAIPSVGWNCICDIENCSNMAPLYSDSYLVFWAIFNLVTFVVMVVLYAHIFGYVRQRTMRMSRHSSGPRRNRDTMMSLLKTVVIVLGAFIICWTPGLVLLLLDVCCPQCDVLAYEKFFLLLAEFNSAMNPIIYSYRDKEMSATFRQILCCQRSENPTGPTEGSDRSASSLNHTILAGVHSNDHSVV

| Compound | inhibition at 30 µM [1] | IC50 [1] | inhibition at 30 µM ([2]; @ 30 μM) | IC50 [2] |
| --- | --- | --- | --- | --- |
| CCc1nnn(-c2ccc(-c3ccc(CC(=O)O)cc3)cc2)c1NC(=O)O[C@H](C)c1cccc(C(F)(F)F)c1 [Example 20] | 58.3% | 21.2 µM | 72.5% | 14.3 µM |
| Cc1nnn(-c2ccc(-c3ccc(C(C)(C)C(=O)O)cc3)cc2)c1NC(=O)O[C@H](C)c1ccccc1 [Example 23, 2-Methyl-2-{4′-[4-methyl-5-((R)-1-phenyl-ethoxycarbonylamino)-[1,2,3]triazol-1-yl]-biphenyl-4-yl}-propionic acid] | 80.9% | 0.796 µM |  | > 30 µM |
| Cc1nnn(-c2cccc(-c3ccc(CC(=O)O)cc3)c2)c1NC(=O)O[C@H](C)c1ccccc1 [Example 26, {3′-[4-Methyl-5-((R)-1-phenyl-ethoxycarbonylamino)-[1,2,3]triazol-1-yl]-biphenyl-4-yl}-acetic acid] |  | > 30 µM |  | > 30 µM |
| Cc1nnn(-c2ccc(-c3ccc(C4(C(=O)O)CC4)cc3)cc2)c1NC(=O)OC(C)C [Example 11, 1-[4′-(5-iso-Propoxycarbonylamino-4-methyl-[1,2,3]triazol-1-yl)-biphenyl-4-yl]-cyclopropanecarboxylic acid] |  | > 30 µM |  | > 30 µM |
| CCc1nnn(-c2ccc(-c3ccc(CC(=O)O)cc3)cc2)c1NC(=O)O[C@H](C)c1ccccc1 [Example 18, {4′-[4-Ethyl-5-((R)-1-phenyl-ethoxycarbonylamino)-[1,2,3]triazol-1-yl]-biphenyl-4-yl}-acetic acid] | 79.8% | 1.23 µM |  | > 30 µM |
| CC[C@@H](C)OC(=O)Nc1c(C)nnn1-c1ccc(-c2ccc(C3(C(=O)O)CC3)cc2)cc1 [Example 10, 1-{4′-[5-((R)-sec-Butoxycarbonylamino)-4-methyl-[1,2,3]triazol-1-yl]-biphenyl-4-yl}-cyclopropanecarboxylic acid] |  | 0.398 µM |  | > 30 µM |
| Cc1nnn(-c2ccc(-c3ccc(C4(C(=O)O)CC4)cc3)cc2)c1NC(=O)OC(C)(C)C [Example 14, 1-[4′-(5-tert-Butoxycarbonylamino-4-methyl-[1,2,3]triazol-1-yl)-biphenyl-4-yl]-cyclopropanecarboxylic acid] |  | 0.985 µM |  | > 30 µM |
| Cc1nnn(-c2cccc(-c3ccc(C4(C(=O)O)CC4)cc3)c2)c1NC(=O)O[C@H](C)c1ccccc1 [Example 25, 1-{3′-[4-Methyl-5-((R)-1-phenyl-ethoxycarbonylamino)-[1,2,3]triazol-1-yl]-biphenyl-4-yl}-cyclopropanecarboxylic acid] |  | > 30 µM |  | > 30 µM |

The remaining lines, values ahead:

| inhibition at 30 µM [1] | IC50 [1] | inhibition at 30 µM ([2]; @ 30 μM) | IC50 [2] | Compound |
| --- | --- | --- | --- | --- |
|  | 0.412 µM |  | 4.82 µM | CCc1nnn(-c2ccc(-c3ccc(C4(C(=O)O)CC4)cc3)cc2)c1NC(=O)O[C@H](C)c1cccc(C(F)(F)F)c1 [Example 19, 1-(4′-{4-Ethyl-5-[(R)-1-(3-trifluoromethyl-phenyl)-ethoxycarbonylamino]-[1,2,3]triazol-1-yl}-biphenyl-4-yl)-cyclopropanecarboxylic acid] |
|  | 0.134 µM |  | > 30 µM | Cc1nnn(-c2ccc(-c3ccc(C4(C(=O)O)CC4)cc3)cc2)c1NC(=O)OC(C)C1CC1 (stereo not shown) [Example 12, 1-{4′-[5-(1-Cyclopropyl-ethoxycarbonylamino)-4-methyl-[1,2,3]triazol-1-yl]-biphenyl-4-yl}-cyclopropanecarboxylic acid] |
|  | 0.088 µM |  | > 30 µM | C=CCC(C(=O)O)c1ccc(-c2ccc(-n3nnc(C)c3NC(=O)O[C@H](C)c3ccccc3)cc2)cc1 (stereo partly drawn) [Example 33, (R)-2-{4′-[4-Methyl-5-(-1-phenylethoxycarbonylamino)-[1,2,3]triazol-1-yl]-biphenyl-4-yl}-pent-4-enoic acid] |
|  | 0.174 µM |  | > 30 µM | Cc1nnn(-c2ccc(-c3ccc(C4(C(=O)O)CCC4)cc3)cc2)c1NC(=O)O[C@H](C)c1ccccc1 (single isomer, unassigned) [Example 32] |
